tested on: E. coli [BL21(DE3)]; assay: Minimal Bactericidal Concentration (MBC) measurements, E. coli; format: cell-based; details: not given
Description: Bacterial Cell Culturing. Expression cells from frozen stock were streaked onto a kanamycin-selected lysogeny broth (LBKan) agar plate using a sterile loop and incubated overnight at 37° C. One colony was then taken from the plate the next day to inoculate 50 mL of sterile LBKan broth and shaken at 37° C. until reaching a growth concentration of 4×10^8 CFU/mL. This protocol was used for bacterial cell culture preparation in all of the experiments described below.
Minimal Bactericidal Concentration (MBC) Measurements. E. coli cells were cultured as described above and aliquoted into sterile tubes. 1%, 10%, and 100% (w/v) solutions of IL in sterile water (correcting for water percentage of the IL) were prepared and sonicated for 15 minutes at 40° C. before addition to the liquid culture. IL solutions were then added to E. coli at varying percentages (v/v), allowing calculation of the actual concentration of IL that was added to the culture. 100 μL of each solution was then spread onto an LBKan agar plate and incubated overnight at 37° C. […] Each IL solution was tested in triplicate.

Compound | E. coli MBC / killing efficacy concentration
CCCCCCCCCCCC(=O)[O-].C[N+](C)(C)CCO [CADDA 1:1, Choline Dodecanoate 1:1] | 17.1 mM

same assay, conditions: Table 1; lowest IL concentration with no growth on LBKan agar plate, triplicate

Compound | E. coli MBC
CC=CC(=O)[O-].C[N+](C)(C)CCO [CA2BE 1:1, Choline 2-Butenoate 1:1] | 1330.40 mM
CCCCCCCC=CC(=O)[O-].C[N+](C)(C)CCO [CA2DE 1:1, Choline 2-Decenoate 1:1] | 3.67 mM
CCCC=CC(=O)[O-].C[N+](C)(C)CCO [CA2HE 1:1, Choline 2-Hexenoate 1:1] | 507.63 mM
CCCCC=CC(=O)[O-].C[N+](C)(C)CCO [CA2HPE 1:1, Choline 2-Heptenoate 1:1] | 346.93 mM
CCCCCC/C=C/C(=O)O [CA2NE 1:1, Choline 2-Nonenoate 1:1] | 56.40 mM
CCCCCC/C=C/C(=O)O [CA2NE 1:2, Choline 2-Nonenoate 1:2] | 1.22 mM
CCCCC/C=C/C(=O)O [CA2OE 1:1, Choline 2-Octenoate 1:1] | 84.70 mM
CCC=CC(=O)[O-].C[N+](C)(C)CCO [CA2PE 1:1, Choline 2-Pentenoate 1:1] | 1151.30 mM
CCCCCCCC/C=C/C(=O)O [CA2UE 1:1, Choline 2-Undecenoate 1:1] | 15.08 mM
C=CCC(=O)[O-].C[N+](C)(C)CCO [CA3BE 1:1, Choline 3-Butenoate 1:1] | 1350.93 mM
CCCCCCC=CCC(=O)[O-].C[N+](C)(C)CCO [CA3DE 1:1, Choline 3-Decenoate 1:1] | 3.10 mM
CC/C=C/CC(=O)O [CA3HE 1:1, Choline 3-Hexenoate 1:1] | 511.17 mM
CCCC=CCC(=O)[O-].C[N+](C)(C)CCO [CA3HPE 1:1, Choline 3-Heptenoate 1:1] | 347.63 mM
C[N+](C)(C)CCO.O=C([O-])CCS [CA3MP 1:1, Choline 3-Mercaptopropionate 1:1] | 1378.42 mM
CCCCC/C=C/CC(=O)O [CA3NE 1:1, Choline 3-Nonenoate 1:1] | 57.50 mM
CCCC/C=C/CC(=O)O [CA3OE 1:1, Choline 3-Octenoate 1:1] | 92.00 mM

Compound | E. coli MBC
CC=CCC(=O)[O-].C[N+](C)(C)CCO [CA3PE 1:1, Choline 3-Pentenoate 1:1] | 1152.23 mM
CC(=O)OCC(=O)O [CAAA 1:1, Choline Acetoxyacetate 1:1] | 73.40 mM
CCCC(=O)[O-].C[N+](C)(C)CCO [CABA 1:1, Choline Butanoate 1:1] | 1234.35 mM
CCCCCCCCCCCC(=O)[O-].C[N+](C)(C)CCO [CADDA 1:1, Choline Dodecanoate 1:1] | 17.10 mM
CCOCC(=O)[O-].C[N+](C)(C)CCO [CAEA 1:1, Choline Ethoxyacetate 1:1] | 1746.07 mM
C[N+](C)(C)CCO.O=C([O-])/C=C/C(=O)O [CAFU 1:1, Choline Fumarate 1:1] | 27.17 mM
CC/C=C(\C)C(=O)O [CAGAS 1:1, Choline trans-2-Methyl-2-Pentenoate 1:1] | 530.73 mM
CC/C=C(\C)C(=O)O [CAGAS 1:2, Choline trans-2-Methyl-2-Pentenoate 1:2] | 44.60 mM
CCCCCC(=O)[O-].C[N+](C)(C)CCO [CAHA 1:1, Choline Hexanoate 1:1] | 483.53 mM
CCCCCCC(=O)[O-].C[N+](C)(C)CCO [CAHPA 1:1, Choline Heptanoate 1:1] | 101.80 mM
C[N+](C)(C)CCO.O=C([O-])CC(=O)O [CAMA 1:1, Choline Malonate 1:1] | 1368.53 mM
C[N+](C)(C)CCO.O=C([O-])C=CC(=O)O [CAME 1:1, Choline Maleate 1:1] | 38.37 mM
C[N+](C)(C)CCO.O=C(O)CC(O)C(=O)[O-] (centres unmarked) [CAMI 1:1, Choline Malate 1:1] | 1126.13 mM
CCCCCCCCC(=O)[O-].C[N+](C)(C)CCO [CANA 1:1, Choline Nonanoate 1:1] | 13.63 mM
CCCCCCCC(=O)[O-].C[N+](C)(C)CCO [CAOA 1:1, Choline Octanoate 1:1] | 76.63 mM
